Measurements reported in US12371748B2, “Genetic markers for predicting responsiveness to therapy with HDL-raising or HDL mimicking agent” (Hoffmann-La Roche Inc., priority 2014, dated 2025).

Test system: patients recently hospitalized for an Acute Coronary Syndrome (ACS)
Assay: dal-OUTCOMES pharmacogenomic study: cardiovascular events by ADCY9 genotype (Cox proportional hazards)
Assay type: in vivo, human
Design: key to Responsiveness to treatment: NR = non-responsive; PR = partially responsive; R = responsive
Conditions: for Hazard ratio (dal vs placebo): time to events; for HR, dal-OUTCOMES: per copy of minor allele
Description: Dal-OUTCOMES trial (NC20971) was a double blind, randomized, placebo-controlled, parallel group, multi-center, phase III study to assess the safety and efficacy of the CETP inhibitor dalcetrapib in patients recently hospitalized for an Acute Coronary Syndrome (ACS). At time of the interim analysis the study included 15871 randomized patients, distributed over two treatment arms: placebo (7933 patients) and dalcetrapib (600 mg daily; 7938 patients). […] The dal-OUTCOMES study details can be found in G. Schwartz et al., N. Engl. J. Med. 367; 22, 2012.
dal-Outcomes patients were recruited 4 to 12 weeks following hospitalization for acute coronary syndrome characterized by elevated cardiac biomarkers, with symptoms of acute myocardial ischemia, ischemic electrocardiographic abnormalities that were new or presumed to be new, or loss of viable myocardium on imaging. Patients without elevated cardiac biomarkers were eligible to participate if symptoms of acute myocardial ischemia were accompanied by electrocardiographic changes that were new or presumed to be new and by additional evidence of obstructive coronary disease. (Schwartz G G et al. Am Heart J 2009; 158:896-901 e3).
All patients were following individualized programs to target LDL cholesterol levels of 100 mg per deciliter (2.6 mmol per liter) or lower by statin if tolerated and diet. No specific statin agent was specified, and patients were not excluded based on LDL cholesterol values. Patients with serum triglyceride levels of 400 mg per deciliter (4.5 mmol per liter) or higher were excluded. (Schwartz G G et al. N Engl J Med 2012; 367:2089-99) Eligible participants to the dal-Outcomes trial entered a single-blind placebo run-in period of approximately 4 to 6 weeks to allow for patients to stabilise and for completion of planned revascularisation procedures. At the end of the run-in period, eligible patients in stable condition were randomised in a 1:1 ratio to 600 mg of dalcetrapib or placebo on top of evidence-based medical care for acute coronary syndrome. Cardiovascular events were adjudicated by an independent clinical endpoint committee. For the pharmacogenomics study, 6338 patients were recruited from April 2008 through July 2010 at 461 sites in 14 countries and provided written informed consent to participate to the genetic study of the dal-OUTCOMES trial. DNA was extracted from whole blood. Following genomic data cleanup, samples from 5749 Caucasian patients were used for the discovery genome-wide association study (GWAS).
The Illumina Infinium HumanOmni2.5Exome-8v1_A BeadChip including 2,567,845 genetic variants (Illumina, San Diego, California) was used for the discovery GWAS of 5749 Caucasian participants to the dal-OUTCOMES study. The chromosome 16 region including 5 genes upstream and downstream of the adenylate cyclase type 9 (ADCY9) gene (CHR16: 3,400,000-4,600,000) was imputed using IMPUTE2, providing 17,764 variants for analysis with an average completion rate of 99.76%. A Sequenom panel was used for the confirmation of imputed single nucleotide polymorphisms (SNPs) in the ADCY9 gene identified in dal-OUTCOMES and were tested in the dal-PLAQUE-2 study, including 20 SNPs with P values<0.05 from the discovery GWAS.
Genome-wide association study (GWAS)—Genome-wide genotyping was performed using 200 ng of genomic DNA in GLP-environment at the Beaulieu-Saucier Pharmacogenomics Centre (Montreal, Canada). The Illumina Infinium HumanOmni2.5Exome-8v1_A BeadChip (Illumina, San Diego, CA) including 2,567,845 genomic markers was used and processed according to the manufacturer's specifications. This chip includes over 200,000 exome variants identified through the Exome Chip Consortium. The remaining BeadChip content is a mix of rare and common SNPs from the 1000 Genome Project designed to be maximally informative for diverse world populations. Each BeadChip was scanned and analyzed using the Illumina iScan Reader. […]

CCC(CC)CC1(C(=O)Nc2ccccc2SC(=O)C(C)C)CCCCC1 [dalcetrapib, thioisobutyric acid S-(2-{[1-(2-ethyl-butyl)-cyclohexanecarbonyl]-amino}-phenyl) ester]
Responsiveness to treatment (rs8061182 CC): NR
Hazard ratio (dal vs placebo) (rs8061182 CC): 1.52
Responsiveness to treatment (rs8061182 CT): PR
Hazard ratio (dal vs placebo) (rs8061182 CT): 0.99
Responsiveness to treatment (rs8061182 TT): R
Hazard ratio (dal vs placebo) (rs8061182 TT): 0.815
HR, dal-OUTCOMES (rs11647778, Cox additive genetic model): 0.678
Responsiveness to treatment (rs11647778 CC): R
Hazard ratio (dal vs placebo) (rs11647778 CC): 0.691
Responsiveness to treatment (rs11647778 CG): PR
Hazard ratio (dal vs placebo) (rs11647778 CG): 0.966
Responsiveness to treatment (rs11647778 GG): NR
Hazard ratio (dal vs placebo) (rs11647778 GG): 1.300
HR, dal-OUTCOMES (rs11647828, Cox additive genetic model): 0.696
Responsiveness to treatment (rs11647828 CC): R
Hazard ratio (dal vs placebo) (rs11647828 CC): 0.647
Responsiveness to treatment (rs11647828 CT): PR
Hazard ratio (dal vs placebo) (rs11647828 CT): 0.963
Responsiveness to treatment (rs11647828 TT): NR
Hazard ratio (dal vs placebo) (rs11647828 TT): 1.315
HR, dal-OUTCOMES (rs12595857, Cox additive genetic model): 0.677
Responsiveness to treatment (rs12595857 AA): NR
Hazard ratio (dal vs placebo) (rs12595857 AA): 1.255
Responsiveness to treatment (rs12595857 AG): PR
Hazard ratio (dal vs placebo) (rs12595857 AG): 0.954
Responsiveness to treatment (rs12595857 GG): R
Hazard ratio (dal vs placebo) (rs12595857 GG): 0.719
HR, dal-OUTCOMES (rs12599911, Cox additive genetic model): 0.674
Responsiveness to treatment (rs12599911 GG): R
Hazard ratio (dal vs placebo) (rs12599911 GG): 0.672
Responsiveness to treatment (rs12599911 GT): PR
Hazard ratio (dal vs placebo) (rs12599911 GT): 0.982
Responsiveness to treatment (rs12599911 TT): NR
Hazard ratio (dal vs placebo) (rs12599911 TT): 1.244
HR, dal-OUTCOMES (rs12920508, Cox additive genetic model): 0.669
Responsiveness to treatment (rs12920508 CC): NR
Hazard ratio (dal vs placebo) (rs12920508 CC): 1.205
Responsiveness to treatment (rs12920508 CG): PR
Hazard ratio (dal vs placebo) (rs12920508 CG): 0.946
Responsiveness to treatment (rs12920508 GG): R
Hazard ratio (dal vs placebo) (rs12920508 GG): 0.676
HR, dal-OUTCOMES (rs12935810, Cox additive genetic model): 1.377
Responsiveness to treatment (rs12935810 AA): NR
Hazard ratio (dal vs placebo) (rs12935810 AA): 1.260
Responsiveness to treatment (rs12935810 AG): NR
Hazard ratio (dal vs placebo) (rs12935810 AG): 1.043
Responsiveness to treatment (rs12935810 GG): R
Hazard ratio (dal vs placebo) (rs12935810 GG): 0.796
HR, dal-OUTCOMES (rs13337675, Cox additive genetic model): 0.834
Responsiveness to treatment (rs13337675 AA): NR
Hazard ratio (dal vs placebo) (rs13337675 AA): 1.070
Responsiveness to treatment (rs13337675 AG): PR
Hazard ratio (dal vs placebo) (rs13337675 AG): 0.904
Responsiveness to treatment (rs13337675 GG): PR
Hazard ratio (dal vs placebo) (rs13337675 GG): 1.034
HR, dal-OUTCOMES (rs17136707, Cox additive genetic model): 0.594
Responsiveness to treatment (rs17136707 CC): R
Hazard ratio (dal vs placebo) (rs17136707 CC): 0.552
Responsiveness to treatment (rs17136707 CT): PR
Hazard ratio (dal vs placebo) (rs17136707 CT): 0.835
Responsiveness to treatment (rs17136707 TT): NR
Hazard ratio (dal vs placebo) (rs17136707 TT): 1.058
HR, dal-OUTCOMES (rs74702385, Cox additive genetic model): 0.599
Responsiveness to treatment (rs74702385 CC): NR
Hazard ratio (dal vs placebo) (rs74702385 CC): 1.053
Responsiveness to treatment (rs74702385 CT): R
Hazard ratio (dal vs placebo) (rs74702385 CT): 0.854
Responsiveness to treatment (rs74702385 TT): R
Hazard ratio (dal vs placebo) (rs74702385 TT): 0.348
HR, dal-OUTCOMES (rs111590482, Cox additive genetic model): 0.606
Responsiveness to treatment (rs111590482 CC): R
Hazard ratio (dal vs placebo) (rs111590482 CC): 0.333
Responsiveness to treatment (rs111590482 CT): R
Hazard ratio (dal vs placebo) (rs111590482 CT): 0.856
Responsiveness to treatment (rs111590482 TT): NR
Hazard ratio (dal vs placebo) (rs111590482 TT): 1.054
event rate in the primary efficacy endpoint, dalcetrapib arm compared to placebo arm (whole study population, 600 mg daily, interim analysis): no evidence of reduction of the event rate
HR for cardiovascular events, AA compared to reference GG homozygotes at rs1967309 (within dalcetrapib arm): 0.40
HR for cardiovascular events, AG compared to reference GG homozygotes at rs1967309 (within dalcetrapib arm): 0.68
